Columns and labels:
[1] = test system: selected tumor cell lines; test: Cancer cell line proliferation assays, whole panel of selected tumor cell lines; format: cell-based; conditions: cancer cell lines of Table 5
Protocol: (§1) All the cell lines are cultured in the media supplemented with 10-20% fetal bovine serum, in the temperature of 37° C., 5% CO2 and 95% humidity. The indicated cell lines (all sourced from the ATCC cell culture collection) are plated in 96-Well Flat Clear Bottom Black Polystyrene TC-Treated Microplates with the final cell density of 4×10^3 cells/well. Cells are incubated overnight and then compounds, dissolved in DMSO, are added in dose-response. Cells are incubated with compound dilutions for another 6 days. Cell viability is quantitated using CellTiter-Glo reagent (Perkin Elmer) and measured using an EnVision Multi Label Reader.

NCI-1H226 = test: Mesothelioma cell line proliferation assay, H226 (ATPlite); format: cell-based; conditions: Homo sapiens, NCI-H226, 144 h, 6 days with compound
Protocol: (§2) Mesothelioma cell lines, NCI-1H226 and NCI-1H2052 (all sourced from the ATCC cell culture collection) are plated in 96-well plates (Corning® 96 Well White Polystyrene Microplate clear flat bottom, white polystyrene (TC-Treated)), at 1500 cells/well in full medium (RPMI 1640 ATCC modification with L-glutamine, HEPES, Phenol Red, Sodium Pyruvate, High glucose, Low sodium bicarbonate and 10% fetal bovine serum). Cells are incubated overnight at 37° C. in an incubator with 5% C02. Then compounds, dissolved in DMSO, are added in dose-response. Cells are incubated with compound dilutions for another 6 days at 37° C. in an incubator with 5% C02. Cell viability is quantitated using the ATPlite kit (Perkin-Elmer) and the luminescence is read-out using an Envision instrument (Perkin-Elmer). The amount of relative light units produced using the ATPlite kit is used to calculated percent of inhibition.
(§3) The activities of some example compounds are depicted in the table below. The activity ranges A, B and C refer to EC50 values in the mesothelioma cell line proliferation assay as described as follows: “A”: EC50<1 μM; “B”: 1 μM s EC50≤10 μM and “C”: EC50≥10 μM; NT: not tested.

Calu-1 = test: Cancer cell line proliferation assay (CellTiter-Glo), Calu-1; format: cell-based; conditions: Homo sapiens, 144 h, Lung (squamous), NF2 HOM DEL/LATS2 HOM DEL, 6 days
Protocol: as §1

NCI-H226 = test: Cancer cell line proliferation assay (CellTiter-Glo), NCI-H226; format: cell-based; conditions: Homo sapiens, 144 h, Lung (mesothelioma), NF2 HOM DEL/LATS1 HOM DEL, 6 days
Protocol: as §1

NCI-1H2052 = test: Mesothelioma cell line proliferation assay, H2052 (ATPlite); format: cell-based; conditions: Homo sapiens, NCI-H2052, 144 h, 6 days with compound, read-out: H2025 (EC50)
Protocol: as §2, §3

SCC-9 = test: Cancer cell line proliferation assay (CellTiter-Glo), SCC-9; format: cell-based; conditions: Homo sapiens, 144 h, Head & neck (squamous), FAT1 HOM DEL, 6 days
Protocol: as §1

NCI-H226 tumor cells = test: In vivo efficacy in a subcutaneous human lung cancer xenograft model (NCI-H226 mesothelioma); design: species or system Female BALB/c Nude Mice; conditions: 100 mg/kg, p.o., BID × 21 days
Protocol: The NCI-H226 tumor cells were maintained in vitro with RPMI-1640 medium supplemented with 10% fetal bovine serum at 37° C. in an atmosphere of 5% CO2 in air. The cells in exponential growth phase were harvested and the cell numbers were quantitated by hemocytometer and cell viability was quantified by Trypan Blue counting before tumor inoculation. Balb/c nude mouse were inoculated with subcutaneously in the right front flank regions with 1×10^7 of NCI-H226 tumor cells in 0.1 mL of PBS mixed with 0.1 ml of Matrigel (1:1) for tumor development. All animals were randomized based on the tumor sizes as well as body weights and randomly allocated to the different study groups (8 mice per group). The randomization started when the mean tumor size at the right rear flank region had reached approximately 172 mm^3. The date of randomization was denoted as Day 0.
Cpd. No. 084 was formulated in Vehicle 1 (PEG400 (40%)+PG (30%)+WFI (30%)) as a 10 mg/ml solution, and dosed orally, twice daily, using 10 μl/g (final dose is 100 mg/kg) for 21 days. Cpd. No. 001 was formulated in Vehicle 2 (PEG400 (65%)+PG (20%)+WFI (15%)) as a 10 mg/ml solution, and dosed orally, twice daily, using 10 μl/g (final dose is 100 mg/kg) for 21 days. After tumor cell inoculation, the animals were checked daily for morbidity and mortality. At the time of routine monitoring, the animals were checked for any effects of tumor growth and treatments on behavior such as mobility, food and water consumption, body weight gain/loss (body weight was measured at least two times per week), and any other abnormalities. Mortality and observed clinical signs were recorded for individual animals. Tumor volumes were measured at least two times weekly in two dimensions using a caliper, and the volume was expressed in mm^3 using the formula: V=(L×W×W)/2, where V is tumor volume, L is tumor length (the longest tumor dimension) and W is tumor width (the longest tumor dimension perpendicular to L).
Tumor growth inhibition (TGI) was used as an indicator of antitumor activities, and was calculated from the relative tumor volumes of the control and treatment groups due to the variance of tumor volumes among groups at Day 0. TGI (%)=(1-T/C)×100%; T/C=MTVt/MTVc, MTVt: mean tumor volume in the treatment groups at a specific measurement day, MTVc: mean tumor volume in the control group at a specific measurement day. Moreover, the difference of TGIs between control and treatment groups was analyzed at a measurement day when all or most of the mice in the control groups were alive. In addition, body weight changes over time in each group were used as an index to evaluate the tolerability of test drugs, and were calculated from the average percentage of body weight changes of each individual mouse relative to their initial body weight at randomization using the following formula: group BW %=mean of ((BWt−BW0)/BW0×100%), BWt: body weight at Day t, BW0: body weight at Day 0.
To compare relative tumor volumes of different groups at a pre-specified day, we first used Bartlett's test to check the assumption of homogeneity of variance across all groups. When the p-value of Bartlett's test is >0.05, we run one-way ANOVA to test overall equality of means across all groups. If the p-value of the one-way ANOVA is <0.05, we further perform post hoc testing by running Tukey's HSD (honest significant difference) tests for all pairwise comparisons, and Dunnett's tests for comparing each treatment group with the vehicle group. When the p-value of Bartlett's test is <0.05, we run Kruskal-Wallis test to test overall equality of medians among all groups. If the p-value of the Kruskal-Wallis test is <0.05, we further perform post hoc testing by running Conover's non-parametric test for all pairwise comparisons or for comparing each treatment group with the vehicle group, both with single-step p-value adjustment. All tests were two-sided unless otherwise specified, and p-values<0.05 were regarded as statistically significant. […]

RL95-2 = test: Cancer cell line proliferation assay (CellTiter-Glo), RL95-2; format: cell-based; conditions: Homo sapiens, 144 h, Endometrial (adeno-squamous), LATS1 HOM DEL, 6 days
Protocol: as §1

[2] = day 20, against the compound's own vehicle group

C=CC(=O)NC1Cc2ccccc2N(c2ccc(C(F)(F)F)cc2)C1 (centres unmarked) [compound 001, N-(1-(4-(trifluoromethyl)phenyl)-1,2,3,4-tetrahydroquinolin-3-yl)acrylamide]
inhibitory activity on the cell proliferation of the selected tumor cell lines [1]: strong inhibitory activity | EC50 (NCI-1H226): < 1 µM | GI50 (Calu-1): 0.12 µM | GI50 (NCI-H226): 0.04 µM | EC50 (NCI-1H2052): < 1 µM | GI50 (SCC-9): 0.05 µM | anti-tumor activity in the xenograft mesothelioma model (NCI-H226 tumor cells): highly statistically significant and strong anti-tumor activity | Mean Tumor Volume (mm^3) on day 20 (NCI-H226 tumor cells; day 20, 8 mice per group): 217.26 ± 45.21 (8) mm^3 | T/C (%) (NCI-H226 tumor cells; [2]): 49.62% | TGI (%) (NCI-H226 tumor cells; [2]): 50.38% | GI50 (RL95-2): 0.05 µM
